How the values were obtained:
[1] = molecular target: MMP12 (Homo sapiens, UniProt P39900); settings: background statement, compound of WO 02/074767; cited from earlier work
[2] = Relative thermodynamic stability in suspension experiments (XRPD on precipitates); assay type: physicochemical
[3] = Humidity sorption by gravimetrical vapour sorption (GVS); assay type: physicochemical
Procedure: The gravimetric responses of test samples to changes in humidity were investigated using either a SGA 100 (VTI Corporation) or a DVS 2 (Surface Measurement System) Gravimetrical Vapour Sorption (GVS) instrument with the following features: Dry to 90% RH and back in steps of, for example, 10% RH.
Equilibrium condition: <0.01 weight-% per 10 minutes (<0.001 weight-%/min)
Approximately 5 mg of the test sample was placed in the cup and evaluated.

[4] = Thermal behaviour on heating (DSC and TGA); assay type: physicochemical; settings: below 200° C.; neither solvent loss nor any other thermal event prior to melting
Procedure: The calorimetric response of a test sample to increasing temperature was investigated using a Q1000 Modulated Temperature Differential Scanning Calorimeter (MTDSC) (TA Instruments) using different methods, the main features being:
Normally modulated mode (“heat only”) with a ramp rate of 5° C./min (but also 1 and 20° C./min were used without modulation). The temperature range was from just below ambient to above 200° C.
Approximately 2 mg of the test sample was placed in an aluminium cups with a lid (no crimping).
The gravimetric response of test samples to increasing temperatures was investigated using a Q500 Thermal Gravimetric Analyser (TGA) (TA Instruments) using the following parameters:
Heating rate (normally): 5° C./min
Approximately 2 to 5 mg of the test sample was placed in the cup and heated to just above 200° C.

[5] = Solid-state storage stability (chemical and physical); assay type: physicochemical; settings: 25° C./desiccated; 25° C./60% RH; 40° C./75% RH; examined after 2, 4, 8 and 12 weeks
Procedure: The solid-state stability of compound (I) Form G was studied under three sets of conditions: at 25° C./desiccated; at 25° C./60% RH; and at 40° C./75% RH. Samples were examined after 2, 4, 8 and 12 weeks and chemical and physical stability was evaluated.

MMP12, sequence (P39900 106-470): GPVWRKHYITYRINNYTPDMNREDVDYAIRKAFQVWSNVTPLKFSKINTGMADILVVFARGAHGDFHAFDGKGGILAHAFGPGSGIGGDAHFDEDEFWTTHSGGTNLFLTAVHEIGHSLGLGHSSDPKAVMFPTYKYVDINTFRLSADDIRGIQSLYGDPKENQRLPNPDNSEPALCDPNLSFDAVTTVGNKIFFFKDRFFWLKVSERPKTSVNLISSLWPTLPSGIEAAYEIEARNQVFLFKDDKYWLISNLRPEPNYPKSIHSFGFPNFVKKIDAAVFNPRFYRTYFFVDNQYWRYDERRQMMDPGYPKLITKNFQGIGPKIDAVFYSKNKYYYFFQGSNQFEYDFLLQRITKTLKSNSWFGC

C[C@]1(CS(=O)(=O)N2CCC(Oc3ccc(Cl)cn3)CC2)NC(=O)NC1=O [Compound (I), (5S)-5-[4-(5-chloro-pyridin-2-yloxy)-piperidine-1-sulfonylmethyl]-5-methyl-imidazolidine-2,4-dione]
MMP12 inhibition (in words) [1]: potent inhibitor of MMP12

C[C@]1(CS(=O)(=O)N2CCC(Oc3ccc(Cl)cn3)CC2)NC(=O)NC1=O [Form A, (5S)-5-[4-(5-chloro-pyridin-2-yloxy)-piperidine-1-sulfonylmethyl]-5-methyl-imidazolidine-2,4-dione]
conversion of crystal form in suspension (XRPD) ([2]; suspensions in organic solvents (ethanol, methanol, 1-propanol, 2-propanol, acetone or ethyl acetate)): complete conversion into Form G

C[C@]1(CS(=O)(=O)N2CCC(Oc3ccc(Cl)cn3)CC2)NC(=O)NC1=O [compound (I) Form G, (S)-5-[4-(5-Chloro-pyridin-2-yloxy)-piperidine-1-sulfonylmethyl]-5-methyl-imidazolidine-2,4-dione Form G]
humidity uptake ([3]; at 80% RH, GVS): < 0.05% | hygroscopicity classification ([3]; criteria defined in the European Pharmacopoeia): non-hygroscopic | relative thermodynamic stability among the seven crystalline modifications ([2]; temperature range investigated (5 to 40° C.)): thermodynamically most stable | thermal stability (DSC and TGA traces) [4]: thermally stable | solid-state chemical and physical stability [5]: chemically and physically stable

Source: patent publication US20090221640A1, “Novel Crystal Modifications” (ASTRAZENECA AB, priority 2006, published 2009)
